# Test results from patent US12642271B2, “Active compound combinations comprising a (thio)carboxamide derivative and a fungicidal compound” (Bayer CropScience Aktiengesellschaft, priority 2011, dated 2026).
# Several values for one entry are separate records, joined by “and”; a condition that tells them apart may be missing. Identical values can stand only once. Like-named read-outs stand apart in the source and are kept apart here.
# How the values were obtained:
# Sphaerotheca fuliginea = experiment: Sphaerotheca test (cucumbers)/preventive; type: in vivo
# Leptosphaeria nodorum = Leptosphaeria nodorum test (wheat)/preventive; type: in vivo
# Puccinia triticina = experiment: Puccinia triticina-test (wheat)/preventive; type: in vivo; conditions: preventive, evaluated 8 days after inoculation
# Alternaria solani = experiment: Alternaria test (tomatoes)/preventive; type: in vivo
# [1] = tested on: Fusarium nivale (var. majus); experiment: Fusarium nivale (var. majus)-test (wheat)/preventive; conditions: Microdochium nivale, in Triticum aestivum, 120 h; for pest or weed control at 20 ppm: 20 ppm a.i.; for pest or weed control at 10 ppm: 10 ppm a.i.
# Experimental: After the spray coating has been dried, the plants are slightly injured by using a sandblast and afterwards they are sprayed with a conidia suspension of Fusarium nivale (var. majus).
# The plants are placed in the greenhouse under a translucent incubation cabinet at a temperature of approximately 10° C. and a relative atmospheric humidity of approximately 100%.
# The test is evaluated 5 days after the inoculation.
# Phytophthora infestans = experiment: whole plant or invertebrate; type: in vivo
# Venturia inaequalis = experiment: Venturia test (apples)/preventive
# Experimental: After the spray coating has dried on, the plants are inoculated with an aqueous conidia suspension of the causal agent of apple scab (Venturia inaequalis) and then remain for 1 day in an incubation cabinet at approximately 20° C. and a relative atmospheric humidity of 100%.
# The plants are then placed in a greenhouse at approximately 21° C. and a relative atmospheric humidity of approximately 90%.
# The test is evaluated 10 days after the inoculation.
# Septoria tritici = experiment: Septoria tritici-test (wheat)/preventive; type: in vivo; conditions: application rate 10 ppm a.i., preventive, evaluated 21 days after inoculation
# [2] = tested on: Blumeria graminis f.sp. hordei; experiment: Blumeria test (barley)/preventive; type: in vivo
# [3] = Phytophthora infestans, 72 h, read-out: Efficacy in % found
compound,measurement,setting,value
spiroxamine [B1.46],Efficacy in % found,"Sphaerotheca fuliginea; Table 4b, 25 ppm a.i.",0%
same,Efficacy in % found,"Leptosphaeria nodorum; Table 9a, 200 ppm a.i.",29%
same,Efficacy in % found,"Leptosphaeria nodorum; application rate 200 ppm, wheat, preventive, evaluated 8 days after inoculation",22% and 40%
same,Efficacy in % found,Puccinia triticina; application rate 200 ppm a.i.,0%
"CCCC1COC(Cn2cncn2)(c2ccc(Cl)cc2Cl)O1 (stereo not drawn) [B1.40, propiconazole]",pest or weed control at 2 ppm,"Alternaria solani; Alternaria solani, 72 h, Table 3c, 2 ppm, read-out: Efficacy in % found",0%
same,pest or weed control at 20 ppm,"Leptosphaeria nodorum; Parastagonospora nodorum, 192 h, application rate 20 ppm, wheat, preventive, evaluated 8 days after inoculation, read-out: Efficacy in % found",0%
same,pest or weed control at 20 ppm,"[1]; read-out: Efficacy in % found, Table 8b",0%
"N#Cc1c(Cl)c(Cl)c(Cl)c(C#N)c1Cl [B5.4, chlorothalonil]",pest or weed control at 50 ppm,Phytophthora infestans; [3],75%
same,pest or weed control at 50 ppm,"Alternaria solani; Alternaria solani, 72 h, Table 3a, 50 ppm a.i., read-out: Efficacy in % found",35%
same,pest or weed control at 12.5 ppm,"Venturia inaequalis; Venturia inaequalis, 240 h, read-out: Efficacy in % found, Table 2a, 12.5 ppm a.i.",35%
"Cn1cc(C(=O)Nc2ccccc2-c2cc(F)c(F)c(F)c2)c(C(F)F)n1 [B2.8, fluxapyroxad]",Efficacy in % found,"Sphaerotheca fuliginea; Table 4d, 0.5 ppm a.i.",0%
same,Efficacy in % found,"Leptosphaeria nodorum; application rate 10 ppm, wheat, preventive, evaluated 8 days after inoculation",0%
same,Efficacy in % found,Puccinia triticina; application rate 10 ppm a.i.,0%
same,Efficacy in % found,Puccinia triticina; application rate 40 ppm a.i.,67%
same,Efficacy in % found,Septoria tritici,0%
same,Efficacy in % found,"Venturia inaequalis; Table 2d, 0.25 ppm a.i.",19%
"CC(C)CC(C)c1sccc1NC(=O)c1cn(C)nc1C(F)(F)F (stereo not drawn) [B2.21, penthiopyrad]",pest or weed control at 0.5 ppm,"Sphaerotheca fuliginea; Podosphaera fuliginea, 168 h, Table 4d, 0.5 ppm a.i., read-out: Efficacy in % found",0%
same,pest or weed control at 20 ppm,"[2]; Blumeria graminis, 168 h, Table 6a, 20 ppm a.i., read-out: Efficacy in % found",20%
same,pest or weed control at 80 ppm,"Puccinia triticina; Puccinia triticina, 192 h, application rate 80 ppm a.i., read-out: Efficacy in % found",78%
same,pest or weed control at 0.5 ppm,"Venturia inaequalis; Venturia inaequalis, 240 h, read-out: Efficacy in % found, Table 2d, 0.5 ppm a.i.",0%
same,pest or weed control at 20 ppm,"[1]; read-out: Efficacy in % found, Table 8c",13%
same,pest or weed control at 80 ppm,"[1]; read-out: Efficacy in % found, Table 8e, 80 ppm a.i.",0%
"N#Cc1ccccc1NC(=O)c1snc(Cl)c1Cl [B6.2, isotianil]",Efficacy in % found,"Alternaria solani; Table 3b, 50 ppm",27%
same,Efficacy in % found,"[2]; Table 6b, 100 ppm a.i.",38%
"CC(C)c1ccc(F)cc1CN(C(=O)c1c(C(F)F)nn(C)c1F)C1CC1 [A7, N-cyclopropyl-3-(difluoromethyl)-5-fluoro-N-(5-fluoro-2-isopropylbenzyl)-1-methyl-1H-pyrazole-4-carboxamide]",pest or weed control at 10 ppm,"Septoria tritici; Zymoseptoria tritici, 504 h, read-out: Efficacy in % found",71%
"COCC(=O)N(c1c(C)cccc1C)[C@H](C)C(=O)OC [B12.10, mefenoxam]",Efficacy in % found,"[2]; Table 6f, 400 ppm a.i.",25%
same,Efficacy in % found,"Leptosphaeria nodorum; application rate 100 ppm, wheat, preventive, evaluated 8 days after inoculation",0%
"Cn1c(=O)c2sc3c(=O)n(C)c(=O)c3sc2c1=O [B15.60, 2,6-dimethyl-1H,5H-[1,4]dithiino[2,3-c:5,6-c′]dipyrrole-1,3,5,7(2H,6H)-tetrone]",pest or weed control at 50 ppm,"Alternaria solani; Alternaria solani, 72 h, Table 3d, 50 ppm, read-out: Efficacy in % found",0%
"Cc1ccc(C(C)C)c(CN(C(=O)c2c(C(F)F)nn(C)c2F)C2CC2)c1 [A12, N-cyclopropyl-3-(difluoromethyl)-5-fluoro-N-(2-isopropyl-5-methylbenzyl)-1-methyl-1H-pyrazole-4-carboxamide]",pest or weed control at 10 ppm,"[2]; Blumeria graminis, 168 h, Table 6f, 10 ppm a.i., read-out: Efficacy in % found",50%
same,pest or weed control at 40 ppm,"Puccinia triticina; Puccinia triticina, 192 h, application rate 40 ppm a.i., read-out: Efficacy in % found",89%
"COC(=O)N(OC)c1ccccc1COc1ccn(-c2ccc(Cl)cc2)n1 [B3.17, pyraclostrobin]",pest or weed control at 1 ppm,Phytophthora infestans; [3],53%
same,pest or weed control at 2 ppm,"Sphaerotheca fuliginea; Podosphaera fuliginea, 168 h, Table 4d, 2 ppm a.i., read-out: Efficacy in % found",0%
same,pest or weed control at 40 ppm,"[2]; Blumeria graminis, 168 h, Table 6b, 40 ppm a.i., read-out: Efficacy in % found",20%
same,pest or weed control at 40 ppm,"Leptosphaeria nodorum; Parastagonospora nodorum, 192 h, application rate 40 ppm, wheat, preventive, evaluated 8 days after inoculation, read-out: Efficacy in % found",57%
same,pest or weed control at 1 ppm,"Venturia inaequalis; Venturia inaequalis, 240 h, read-out: Efficacy in % found, Table 2b, 1 ppm a.i.",79%
same,pest or weed control at 40 ppm,"[1]; read-out: Efficacy in % found, Table 8a, 40 ppm",93%
same,pest or weed control at 10 ppm,"[1]; read-out: Efficacy in % found, Table 8e",57%
same,pest or weed control at 10 ppm,"[1]; read-out: Efficacy in % found, Table 8d",71%
"CCCCCCCCc1c(CC)nc2ncnn2c1N [B3.1, ametoctradin]",Efficacy in % found,"Phytophthora infestans; Table 1a, 5 ppm a.i.",48%
